Assay results from patent US20060069123A1, “Substituted dipiperidine CCR2 antagonists” (priority 2004, published 2006).
Like-named read-outs stand apart in the source and are kept apart here.

Tests used:
[1] = target: T1, CCR2 (Homo sapiens, UniProt P41597)
T1 sequence (P41597 1-360 isoform P41597-2): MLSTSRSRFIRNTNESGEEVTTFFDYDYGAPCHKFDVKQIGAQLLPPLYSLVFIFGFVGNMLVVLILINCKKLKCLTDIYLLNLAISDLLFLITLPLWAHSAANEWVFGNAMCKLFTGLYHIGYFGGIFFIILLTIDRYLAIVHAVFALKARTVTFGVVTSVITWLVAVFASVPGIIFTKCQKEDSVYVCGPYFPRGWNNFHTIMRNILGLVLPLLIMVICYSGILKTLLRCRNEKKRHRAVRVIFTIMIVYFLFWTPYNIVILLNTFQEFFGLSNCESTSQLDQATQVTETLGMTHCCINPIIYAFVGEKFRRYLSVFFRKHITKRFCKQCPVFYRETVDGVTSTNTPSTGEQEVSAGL

[2] = tested on: THP-1 cells; conditions: Homo sapiens, THP-1, read-out: Inhibition of MCP-1 Induced Calcium Ion Influx IC50
[3] = tested on: THP-1 cells; assay: MCP-1 Induced Chemotaxis in THP-1 Cells; format: cell-based; conditions: Homo sapiens; THP-1 cells, MCP-1 0.01 μg/mL, 3 hours; read-out: Inhibition of MCP-1 Induced Chemotaxis IC50
[4] = tested on: Lewis rats; assay: Adjuvant-Induced Arthritis Model (Therapeutic Dosing from Day 12-16); format: in vivo; conditions: orally, once per day, 3 mg/kg (positive control), therapeutic study
Text: Adjuvant-Induced Arthritis Model (Therapeutic Dosing from Day 12-16)

[5] = tested on: Lewis rats; conditions: orally, once per day, 3 mg/kg, days 10-14 (positive control)

Row | SMILES | IC50 [1] [nM] | IC50 [2] [nM] | IC50 [3] [nM] | inhibited adjuvant-injected paw swelling [4] [%] | inhibited contralateral paw swelling [4] [%] | inhibited contralateral paw swelling [5] [%] | inhibited swelling in the adjuvant-injected paws [5] [%]
1 | O=C(/C=C/c1cc(F)cc(F)c1)N1CCC(C(CO)N2CCC(c3c[nH]c4c3ccc[n+]4[O-])CC2)CC1 (stereo not shown) [Cpd 205, (2E)-3-(3,5-difluoro-phenyl)-1-(4-{2-hydroxy-1-[4-(7-oxy-1H-pyrrolo[2,3-b]pyridin-3-yl)-piperidin-1-yl]-ethyl}-piperidin-1-yl)-propenone] | 40 | 20 | 40 | – | – | – | –
2 | O=C(/C=C/c1cc(F)cc(F)c1)N1CCC(C(CO)N2CCC(c3c[nH]c4ncccc34)CC2)CC1 (stereo not shown) [Cpd 202, (2E)-3-(3,5-difluoro-phenyl)-1-(4-{2-hydroxy-1-[4-(1H-pyrrolo[2,3-b]pyridin-3-yl)-piperidin-1-yl]-ethyl}-piperidin-1-yl)-propenone] | 19.3 | 8 | 15 | – | – | – | –
3 | COc1ccc(C2CCN(C(CO)C3CCN(C(=O)/C=C/c4cc(F)c(F)c(F)c4)CC3)CC2)cc1 (stereo not shown) [Cpd 158, (2E)-1-(4-{2-hydroxy-1-[4-(4-methoxy-phenyl)-piperidin-1-yl]-ethyl}-piperidin-1-yl)-3-(3,4,5-trifluoro-phenyl)-propenone] | 100 | 140 | 100 | – | – | – | –
4 | O=C(C=Cc1ccc(F)c(F)c1)N1CCC(C(CO)N2CCC(c3c[nH]c4ccc(F)cc34)CC2)CC1 (stereo not shown) [Cpd 254, (2E)-3-(3,4-difluoro-phenyl)-1-(4-{1-[4-(5-fluoro-1H-indol-3-yl)-piperidin-1-yl]-2-hydroxy-ethyl}-piperidin-1-yl)-propenone] | 120 | 30 | 20 | – | – | – | –
5 | O=C(/C=C/c1cc(F)c(F)c(F)c1)N1CCC(C(CO)N2CCC(c3c[nH]c4ncccc34)CC2)CC1 (stereo not shown) [Cpd 153, (2E)-1-(4-{2-hydroxy-1-[4-(1H-pyrrolo[2,3-b]pyridin-3-yl)-piperidin-1-yl]-ethyl}-piperidin-1-yl)-3-(3,4,5-trifluoro-phenyl)-propenone] | 3 | 7 | 9 | – | – | – | –
6 | COc1ccc2[nH]cc(C3CCN(C(CO)C4CCN(C(=O)/C=C/c5cc(F)cc(F)c5)CC4)CC3)c2c1 (stereo not shown) [Cpd 164, (2E)-3-(3,5-difluoro-phenyl)-1-(4-{2-hydroxy-1-[4-(5-methoxy-1H-indol-3-yl)-piperidin-1-yl]-ethyl}-piperidin-1-yl)-propenone] | 10 | 9 | 40 | – | – | – | –
7 | O=C(/C=C/c1ccc([N+](=O)[O-])cc1)OCC(C1CCN(C(=O)/C=C/c2ccc([N+](=O)[O-])cc2)CC1)N1CCC(c2c[nH]c3ccccc23)CC1 (stereo not shown) [Cpd 251, (2E)-3-(4-nitro-phenyl)-acrylic acid 2-[4-(1H-indol-3-yl)-piperidin-1-yl]-2-{1-[(2E)-3-(4-nitro-phenyl)-acryloyl]-piperidin-4-yl}-ethyl ester] | 390 | 560 | 170 | – | – | – | –
8 | COc1ccc2c(c1)c(CC(=O)O)c(C)n2C(=O)c1ccc(Cl)cc1 [Indomethacin, indomethacin, reference compound] | – | – | – | 40 | 69 | 72 | 38
9 | O=C(/C=C/c1ccc(Cl)c(Cl)c1)N1CCC(C(CO)N2CCC(c3ccncc3)CC2)CC1 (stereo not shown) [Cpd 185, (2E)-3-(3,4-dichloro-phenyl)-1-{4-[2-hydroxy-1-(3,4,5,6-tetrahydro-2H-[4,4′]bipyridinyl-1-yl)-ethyl]-piperidin-1-yl}-propenone] | 840 | 4600 | 340 | – | – | – | –
10 | O=C(/C=C/c1cc(F)cc(F)c1)N1CCC(C(CO)N2CCC(c3c[nH]c4ccc(F)cc34)CC2)CC1 (stereo not shown) [Cpd 171, (2E)-3-(3,5-difluoro-phenyl)-1-(4-{1-[4-(5-fluoro-1H-indol-3-yl)-piperidin-1-yl]-2-hydroxy-ethyl}-piperidin-1-yl)-propenone] | 4.5 | 7 | 6 | – | – | – | –

Now from value to molecule, other results behind:

Row | IC50 [1] [nM] | IC50 [2] [nM] | IC50 [3] [nM] | SMILES | inhibited adjuvant-injected paw swelling [4] [%] | inhibited contralateral paw swelling [4] [%] | inhibited contralateral paw swelling [5] [%] | inhibited swelling in the adjuvant-injected paws [5] [%]
11 | 0.2 | 0.1 | 12 | O=C(/C=C/c1ccc(Cl)c(Cl)c1)N1CCC(C(CO)N2CCC(c3c[nH]c4ccccc34)CC2)CC1 (stereo not shown) [Cpd 121, (2E)-3-(3,4-dichloro-phenyl)-1-(4-{2-hydroxy-1-[4-(1H-indol-3-yl)-piperidin-1-yl]-ethyl}-piperidin-1-yl)-propenone] | – | – | – | –
12 | 50 | 1300 | 500 | CSc1cccc(NC(=O)N2CCC(C(C(=O)O)N3CCC(c4c[nH]c5ccccc45)CC3)CC2)c1 (stereo not shown) [Cpd 144, [4-(1H-indol-3-yl)-piperidin-1-yl]-[1-(3-methylsulfanyl-phenylcarbamoyl)-piperidin-4-yl]-acetic acid] | – | – | – | –
13 | 70 | 490 | 90 | O=C(O)C(C1CCN(C(=O)/C=C/c2cccs2)CC1)N1CCC(c2c[nH]c3ccccc23)CC1 (stereo not shown) [Cpd 103, [4-(1H-indol-3-yl)-piperidin-1-yl]-{1-[(2E)-3-thiophen-2-yl-acryloyl]-piperidin-4-yl}-acetic acid] | – | – | – | –
14 | 230 | 2060 | 140 | Nc1cc2c(C3CCN(C(C(=O)O)C4CCN(C(=O)/C=C/c5cc(F)c(F)c(F)c5)CC4)CC3)c[nH]c2cn1 (stereo not shown) [Cpd 179, [4-(5-amino-1H-pyrrolo[2,3-c]pyridin-3-yl)-piperidin-1-yl]-{1-[(2E)-3-(3,4,5-trifluoro-phenyl)-acryloyl]-piperidin-4-yl}-acetic acid] | – | – | – | –
15 | 20 | 130 | 140 | Cc1cc(NC(=O)N2CCC(C(C(=O)O)N3CCC(c4c[nH]c5ccccc45)CC3)CC2)ccc1Br (stereo not shown) [Cpd 101, [1-(4-bromo-3-methyl-phenylcarbamoyl)-piperidin-4-yl]-[4-(1H-indol-3-yl)-piperidin-1-yl]-acetic acid] | – | – | – | –
16 | 810 | 1600 | 2500 | Cc1ccc(NC(=O)N2CCC(C(C(=O)O)N3CCC(c4c[nH]c5ccccc45)CC3)CC2)cc1 (stereo not shown) [Cpd 99, [4-(1H-indol-3-yl)-piperidin-1-yl]-(1-p-tolylcarbamoyl-piperidin-4-yl)-acetic acid] | – | – | – | –
17 | 5 | 30 | 60 | O=C(O)C(C1CCN(C(=O)Nc2ccc(SC(F)(F)F)cc2)CC1)N1CCC(c2c[nH]c3ccccc23)CC1 (stereo not shown) [Cpd 142, [4-(1H-indol-3-yl)-piperidin-1-yl]-[1-(4-trifluoromethylsulfanyl-phenylcarbamoyl)-piperidin-4-yl]-acetic acid] | – | – | – | –
18 | 20 | 110 | 210 | Cc1ccc(NC(=O)N2CCC(C(C(=O)O)N3CCC(c4c[nH]c5ccccc45)CC3)CC2)cc1C(F)(F)F (stereo not shown) [Cpd 106, [4-(1H-indol-3-yl)-piperidin-1-yl]-[1-(4-methyl-3-trifluoromethyl-phenylcarbamoyl)-piperidin-4-yl]-acetic acid] | – | – | – | –
19 | 210 | 110 | 190 | O=C(O)C(C1CCN(C(=O)/C=C/c2cc(F)c(F)c(F)c2)CC1)N1CCC(c2c[nH]c3cccnc23)CC1 (stereo not shown) [Cpd 207, [4-(1H-pyrrolo[3,2-b]pyridin-3-yl)-piperidin-1-yl]-{1-[(2E)-3-(3,4,5-trifluoro-phenyl)-acryloyl]-piperidin-4-yl}-acetic acid] | – | – | – | –
20 | 890 | 1850 | 2200 | Cc1cccc(NC(=O)N2CCC(C(C(=O)O)N3CCC(c4c[nH]c5ccccc45)CC3)CC2)c1 (stereo not shown) [Cpd 98, [4-(1H-indol-3-yl)-piperidin-1-yl]-(1-m-tolylcarbamoyl-piperidin-4-yl)-acetic acid] | – | – | – | –
21 | 0.6 | 0.02 | 0.2 | CS(=O)(=O)Nc1ccc2[nH]cc(C3CCN(C(CO)C4CCN(C(=O)/C=C/c5ccc(Cl)c(Cl)c5)CC4)CC3)c2c1 (stereo not shown) [Cpd 198, N-{3-[1-(1-{1-[(2E)-3-(3,4-dichloro-phenyl)-acryloyl]-piperidin-4-yl}-2-hydroxy-ethyl)-piperidin-4-yl]-1H-indol-5-yl}-methanesulfonamide] | – | – | – | –
22 | 30 | 10 | 150 | COc1ccc2c(C3CCN(C(CO)C4CCN(C(=O)/C=C/c5ccc(Cl)c(Cl)c5)CC4)CC3)c[nH]c2c1 (stereo not shown) [Cpd 163, (2E)-3-(3,4-dichloro-phenyl)-1-(4-{2-hydroxy-1-[4-(6-methoxy-1H-indol-3-yl)-piperidin-1-yl]-ethyl}-piperidin-1-yl)-propenone] | – | – | – | –
23 | 250 | 970 | 230 | O=C(O)C(C1CCN(C(=O)Nc2cccc(C(F)(F)F)c2)CC1)N1CCC(c2c[nH]c3ccccc23)CC1 (stereo not shown) [Cpd 97, [4-(1H-indol-3-yl)-piperidin-1-yl]-[1-(3-trifluoromethyl-phenylcarbamoyl)-piperidin-4-yl]-acetic acid] | – | – | – | –
